Experimental data from patent US20070021484A1, “Substituted N-cinnamyl benzamides” (ChemoCentryx, Inc., priority 2005, published 2007).
Structures can show the parent of a compound that is named as a salt.

Molecular target: T1, CCXCKR2 receptor (Homo sapiens, UniProt P25106)
T1 construct: The compounds were combined with mammary gland cells expressing the CCXCKR2 receptor in the presence of the ^125I-labeled chemokine; host or cells: MCF-7 (endogenous receptor) and/or MDA-MB-435S stably transfected with pcDNA3.1(+)-hRDC1
T1 sequence (P25106 whole entry): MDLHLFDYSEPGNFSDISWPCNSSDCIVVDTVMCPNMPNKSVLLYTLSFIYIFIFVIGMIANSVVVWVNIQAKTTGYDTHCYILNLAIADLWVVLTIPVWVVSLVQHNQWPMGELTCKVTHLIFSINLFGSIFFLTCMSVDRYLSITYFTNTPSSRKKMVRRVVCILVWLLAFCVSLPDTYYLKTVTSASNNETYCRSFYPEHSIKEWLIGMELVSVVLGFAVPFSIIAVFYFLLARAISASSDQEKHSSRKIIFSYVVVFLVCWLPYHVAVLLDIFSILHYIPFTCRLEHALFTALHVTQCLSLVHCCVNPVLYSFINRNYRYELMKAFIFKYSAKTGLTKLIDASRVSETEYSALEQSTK
Experiment: Displacement of 125I-labeled SDF-1 from the CCXCKR2 receptor (radioligand binding, determination of IC50 values)
Conditions: concentration displacing at least 50% of 125I SDF-1 from CCXCKR2; MCF-7 and/or CCXCKR2 transfected MDA-MB-435S cells; 3 hr at 4° C.
Experimental: The ability of the compounds to displace the labeled chemokine from the CCXCKR2 receptor sites at multiple concentrations was then determined with the screening process.
Compounds that were deemed effective modulators were able to displace at least 50% of the SDF-1 from the CCXCKR2 receptor at concentrations at or below 2.1 micromolar (μM), as represented by the notation (+) for certain exemplary compounds shown in Table B below, and more preferably at concentrations at or below 700 nanomolar (nM) (++). At present, especially preferred compounds can displace at least 50% of the SDF-1 from the CCXCKR2 receptor at concentrations at or below 500 nM (+++). As stated above, Exemplary compounds that met these criteria are reproduced in Table B below. All compounds were prepared as described in the Examples above, or by related methods substituting readily available starting materials.
Reagents and Cells. ^125I-labeled SDF-1 was purchased from Perkin-Elmer Life Sciences, Inc. (Boston, Mass.). The MCF-7 (adenocarcinoma; mammary gland) cell line was obtained from the American Type Culture Collection (Manassas, Va.) or and was cultured in DMEM (Mediatech, Herndon, Va.) supplemented with 10% fetal bovine serum (FBS) (HyClone Logan, Utah) and bovine insulin (0.01 mg/mL) (Sigma, St. Louis, Mo.) at 37° C. in a humidified incubator at a 5% CO2/air mixture. CCXCKR2 transfected MDA-MB-435S were produced as described below. MDA-MB-435S human breast cancer line, was purchased from ATCC, and cultured in DMEM/10% FBS medium. The complete coding sequence of the gene encoding CCXCKR2 (a.k.a.CXCR^7, hRDC1), was isolated from MCF-7 cells using μMACs mRNA isolation kit (Miltenyi Biotec, Auburn, Calif.). DNA contamination was removed by DNase digestion via RNeasy columns (Qiagen, Inc., Valencia, Calif.) and cDNA was generated using GeneAmp RNA PCR Core Kit (Applied Biosystems, Foster City, Calif.). PCR of cDNA samples was performed using Taq PCR Master Mix kit (Qiagen, Inc.) and hRDC1 primers harboring 5′ and 3′ Not I sites
Binding Analysis. Target compounds were tested to determine their ability to bind with CCXCKR2 sites on MCF-7 and/or MDA-MB-435S cells. Efficiency-maximized radioligand binding using filtration protocols as described in Dairaghi D J, et al., HHV8-encoded vMIP-I selectively engages chemokine receptor CCR5. Agonist and antagonist profiles of viral chemokines., J. Biol. Chem. 1999 Jul. 30; 274(31): 21569-74 and Gosling J, et al., Cutting edge: identification of a novel chemokine receptor that binds dendritic cell- and T cell-active chemokines including ELC, SLC, and TECK., J. Immunol. 2000 Mar. 15; 164(6):2851-6 was used.
In these assays, MCF-7 and/or MDA-MB-435S cells were interrogated with the target compounds and the ability of these compounds to displace ^125I radiolabeled SDF-1 was assessed using the protocol described in Dairaghi and Gosling. The target compounds were added to the plate to the indicated concentration and were then incubated with cells followed by the addition of radiolabeled chemokine (^125I SDF-1) for 3 hr at 4° C. in the following binding medium (25 mM HEPES, 140 mM NaCl, 1 mM CaCl2, 5 mM MgCl2 and 0.2% bovine serum albumin, adjusted to pH 7.1). All assays were then incubated for 3 hrs at 4° C. with gentle agitation. Following incubation in all binding assays, reactions were aspirated onto PEI-treated GF/B glass filters (Packard) using a cell harvester (Packard) and washed twice (25 mM HEPES, 500 mM NaCl, 1 mM CaCl2, 5 mM MgCl2, adjusted to pH 7.1). Scintillant (MicroScint 10, Packard) was added to the wells, and the filters were counted in a Packard Topcount scintillation counter. Data were analyzed and plotted using Prism (GraphPad Prism version 3.0a for Macintosh, GraphPad Software, www.graphpad.com).

| IC50 [nM] | Structure (SMILES) |
| --- | --- |
| ≤ 500 | COc1ccc(C(=O)N(C/C(C)=C/c2ccc(F)cc2F)C[C@@H]2CCCN2C[C@H]2CC[C@H](NS(C)(=O)=O)CC2)cc1OC [Compound 9, N-(S)-[(E)-3-(2,4-Difluoro-phenyl)-2-methyl-allyl]-N-[(S)-1-(4-methanesulfonylamino-cyclohexylmethyl)-pyrrolidin-2-ylmethyl]-3,4-dimethoxy-benzamide] |
| ≤ 500 | COc1cc(C(=O)N(C/C(C)=C/c2ccc(F)cc2F)C[C@@H]2C[C@@H]3CCCC[C@@H]3N2)cc2c1OC(C)(C)O2 [Compound 4, 7-Methoxy-2,2-dimethyl-benzo[1,3]dioxole-5-carboxylic acid [(E)-3-(2,4-difluoro-phenyl)-2-methyl-allyl]-[(2S,3aS,7aS)-1-(octahydro-indol-2-yl)methyl]-amide] |
| ≤ 2100 | COc1cc(C(=O)N(C/C(C)=C/c2ccc(F)cc2F)Cc2nccn2C)ccc1OC(F)F [Compound 18, 4-difluoromethoxy-N-[3-(2,4-difluoro-phenyl)-2-methyl-allyl]-3-methoxy-N-(1-methyl-1H-imidazol-2-ylmethyl)-benzamide] |
| ≤ 500 | COc1ccc(C(=O)N(CC2=NCCN2)C/C(C)=C/c2ccc(F)cc2F)cc1OC [Compound 19, N-[(E)-3-(2,4-Difluoro-phenyl)-2-methyl-allyl]-N-(4,5-dihydro-1 H-imidazol-2-ylmethyl)-3,4-dimethoxy-benzamide hydrochloride] |
| ≤ 500 | COc1ccc(C(=O)N(C/C(C)=C/c2ccc(F)cc2F)C[C@@H]2CCCN2CC2CCC(N)CC2)cc1OC (stereo partly drawn) [Compound 10, N-[(S)-1-(4-Amino-cyclohexylmethyl)-pyrrolidin-2-ylmethyl]-N-[(E)-3-(2,4-difluoro-phenyl)-2-methyl-allyl]-3,4-dimethoxy-benzamide] |
| ≤ 500 | COc1ccc(C(=O)N(C/C(C)=C/c2ccc(F)cc2F)C[C@@H]2C[C@@H]3CCCC[C@@H]3N2)cc1OC [Compound 5, N-[(E)-3-(2,4-Difluoro-phenyl)-2-methyl-allyl]-3,4-dimethoxy-N-[(2S,3aS,7aS)-1-(octahydro-indol-2-yl)methyl]-benzamide] |
| ≤ 500 | COc1cc(C(=O)N(C/C(C)=C/c2ccc(F)cc2F)C[C@@H]2C[C@@H]3CCCC[C@@H]3N2)ccc1OC(F)F [Compound 3, 4-Difluoromethoxy-N-[(E)-3-(2,4-difluoro-phenyl)-2-methyl-allyl]-3-methoxy-N-[(2S,3aS,7aS)-1-(octahydro-indol-2-yl)methyl]-benzamide] |
| ≤ 500 | COc1cc(C(=O)N(C/C(C)=C/c2ccccc2)CC2CCCN2C[C@H]2CC[C@@H](NC(C)C)CC2)cc2c1OC(C)(C)O2 (stereo partly drawn) [Compound 6, Methoxy-2,2-dimethyl-benzo[1,3]dioxole-5-carboxylic acid [(S)-1-(4-isopropylamino-cyclohexylmethyl)-pyrrolidin-2-ylmethyl]-((E)-2-methyl-3-phenyl-allyl)-amide] |
| ≤ 500 | COc1cc(C(=O)N(C/C(C)=C/c2ccccc2)C[C@@H]2C[C@@H]3CCC[C@@H]3N2)cc2c1OC(C)(C)O2 [Compound 2, 7-Methoxy-2,2-dimethyl-benzo[1,3]dioxole-5-carboxylic acid (2-methyl-3-phenyl-allyl)-[(2S,5S,6S)-1-(octahydro-cyclopenta[b]pyrrol-2-yl)methyl]-amide] |
| ≤ 500 | COc1cc(C(=O)N(C/C(C)=C/c2ccccc2)C[C@@H]2C[C@@H]3CCCC[C@@H]3N2)cc2c1OC(C)(C)O2 [Compound 1, 7-Methoxy-2,2-dimethyl-benzo[1,3]dioxole-5-carboxylic acid (2-methyl-3-phenyl-allyl)-[(2S,6S,7S)-1-(octahydro-indol-2-yl)methyl]-amide] |
| ≤ 500 | COc1ccc(C(=O)N(C/C(C)=C/c2ccc(F)cc2F)C[C@@H]2CCCN2C[C@H]2CC[C@@H](N)C2)cc1OC [Compound 7, N-[(S)-1-((1S,3R)-3-Amino-cyclopentylmethyl)-pyrrolidin-2-ylmethyl]-N-[(E)-3-(2,4-difluoro-phenyl)-2-methyl-allyl]-3,4-dimethoxy-benzamide] |
| ≤ 500 | COc1cc(C(=O)N(C/C(C)=C/c2ccc(F)cc2F)C[C@@H]2CCCN2C[C@H]2CC[C@@H](NS(C)(=O)=O)CC2)ccc1OC(F)F [Compound 11] |
| ≤ 2100 | COc1ccc(C(=O)N(C/C(C)=C/c2ccc(F)cc2F)CC2CCC3COCCN32)cc1OC (stereo not drawn) [Compound 20] |
| ≤ 500 | COc1cc(C(=O)N(C/C(C)=C/c2ccc(F)cc2F)C[C@@H]2CCCN2CC2(N(C)C)CCCC2)ccc1OC(F)F (stereo in doubt) [Compound 15, 4-Difluoromethoxy-N-[3-(2,4-difluoro-phenyl)-2-methyl-allyl]-N-[1-(1-dimethylamino-cyclopentylmethyl)-pyrrolidin-2-ylmethyl]-3-methoxy-benzamide] |
| ≤ 500 | COc1cc(C(=O)N(C/C(C)=C/c2ccc(F)cc2F)C[C@H]2CCCN2C[C@H]2CC[C@@H](N)CC2)ccc1OC(F)F [Compound 14] |
| ≤ 500 | COc1cc(C(=O)N(C/C(C)=C/c2ccc(F)cc2F)CC2CCCN2CC2(NS(C)(=O)=O)CCCC2)ccc1OC(F)F (stereo not drawn) [Compound 17] |
| ≤ 500 | COc1ccc(C(=O)N(C/C(C)=C/c2ccc(F)cc2F)C[C@@H]2CCCN2C[C@H]2CC[C@@H](N)CC2)cc1OC [Compound 13, N-[1-(4-amino-cyclohexylmethyl)-pyrrolidin-2-ylmethyl]-N-[3-(2,4-difluoro-phenyl)-2-methyl-allyl]-3,4-dimethoxy-benzamide] |
| ≤ 700 | COc1cc(C(=O)N(C/C(C)=C/c2ccc(F)cc2F)CC2CCCN2CC2(N)CCCC2)ccc1OC(F)F (stereo not drawn) [Compound 16, N-[1-(1-Amino-cyclopentylmethyl)-pyrrolidin-2ylmethyl]-4-difluoromethoxy-N-[3-(2,4-difluoro-phenyl)-2-methyl-allyl]-3-methoxy-benzamide] |
